The results in this text go back to article PMC5971468, “Small molecules that inhibit the late stage of Munc13-4–dependent secretory granule exocytosis in mast cells” (The Journal of Biological Chemistry, 2018).

What is called IC50 is the concentration at which inhibition is half-maximal.

In assay [1] the target is T1, Munc13-4 (Homo sapiens, UniProt Q70J99).
T1 construct: gene UNC13D; His6-tagged human Munc13-4 protein produced in insect Sf9 cells
Kind of assay: SNARE-dependent liposome lipid-mixing FRET assay with purified Munc13-4 + Ca2+. The format is biochemical.

Assay [2] deals with T1, Munc13-4. The experiment in a line: SNARE-dependent liposome lipid-mixing FRET assay with purified Munc13-4 + Ca2+; liposome flotation binding assay. Format: biochemical.

T1 sequence (Q70J99 whole entry): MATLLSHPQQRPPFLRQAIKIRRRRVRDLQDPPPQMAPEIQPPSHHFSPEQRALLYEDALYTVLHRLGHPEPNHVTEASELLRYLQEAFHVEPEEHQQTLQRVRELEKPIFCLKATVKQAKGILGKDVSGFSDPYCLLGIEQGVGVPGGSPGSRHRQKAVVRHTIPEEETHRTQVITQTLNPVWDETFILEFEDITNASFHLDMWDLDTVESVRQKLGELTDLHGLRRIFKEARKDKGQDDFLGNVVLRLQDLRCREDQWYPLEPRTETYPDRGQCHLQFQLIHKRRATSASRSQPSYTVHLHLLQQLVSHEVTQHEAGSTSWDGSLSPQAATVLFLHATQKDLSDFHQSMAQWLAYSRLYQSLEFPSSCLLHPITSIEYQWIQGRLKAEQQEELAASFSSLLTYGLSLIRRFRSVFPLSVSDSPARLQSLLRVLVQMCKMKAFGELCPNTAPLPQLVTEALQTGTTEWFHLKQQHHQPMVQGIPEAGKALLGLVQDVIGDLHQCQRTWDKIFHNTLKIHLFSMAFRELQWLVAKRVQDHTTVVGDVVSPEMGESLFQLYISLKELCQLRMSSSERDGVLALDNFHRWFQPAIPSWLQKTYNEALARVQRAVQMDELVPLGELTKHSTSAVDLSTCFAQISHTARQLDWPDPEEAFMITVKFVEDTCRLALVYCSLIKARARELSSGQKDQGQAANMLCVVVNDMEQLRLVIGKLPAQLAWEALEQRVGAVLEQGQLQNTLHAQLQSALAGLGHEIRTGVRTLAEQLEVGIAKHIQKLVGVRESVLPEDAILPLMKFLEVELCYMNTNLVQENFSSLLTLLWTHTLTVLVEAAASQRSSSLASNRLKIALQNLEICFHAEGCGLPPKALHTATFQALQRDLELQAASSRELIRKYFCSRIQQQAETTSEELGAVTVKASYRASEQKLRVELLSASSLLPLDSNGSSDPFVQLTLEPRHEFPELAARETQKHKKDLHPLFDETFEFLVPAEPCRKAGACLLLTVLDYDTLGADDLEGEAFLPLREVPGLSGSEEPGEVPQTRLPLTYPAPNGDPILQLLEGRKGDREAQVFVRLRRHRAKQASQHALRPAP
T1 sequence (P32851 whole entry partner): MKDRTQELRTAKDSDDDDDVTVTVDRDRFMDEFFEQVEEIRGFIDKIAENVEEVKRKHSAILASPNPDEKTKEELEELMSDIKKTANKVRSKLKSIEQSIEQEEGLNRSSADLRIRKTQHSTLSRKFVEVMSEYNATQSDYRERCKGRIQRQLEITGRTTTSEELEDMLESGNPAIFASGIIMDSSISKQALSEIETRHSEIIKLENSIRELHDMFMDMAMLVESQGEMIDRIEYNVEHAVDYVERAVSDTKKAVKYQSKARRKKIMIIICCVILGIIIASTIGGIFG
T1 sequence (P60879 whole entry partner): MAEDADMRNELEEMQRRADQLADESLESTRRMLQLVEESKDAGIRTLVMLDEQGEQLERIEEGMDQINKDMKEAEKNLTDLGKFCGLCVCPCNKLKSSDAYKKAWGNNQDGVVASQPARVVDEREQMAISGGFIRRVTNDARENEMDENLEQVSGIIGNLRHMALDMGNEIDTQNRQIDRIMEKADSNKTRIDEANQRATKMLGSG
T1 sequence (P63044 2-116 partner): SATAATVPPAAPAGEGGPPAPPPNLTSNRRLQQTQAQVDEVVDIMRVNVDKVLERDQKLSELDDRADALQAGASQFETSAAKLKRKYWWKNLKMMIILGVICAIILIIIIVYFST

`COc1ccc2sc(N(CCCN(C)C)C(=O)c3ccc(S(=O)(=O)N4CCCc5ccccc54)cc3)nc2c1` [bexin-3]: the IC50 on Munc13-4 [1] is about 5 µM.
As to `CCn1nc(C(=O)N(CCCN(C)C)c2nc3c(C)ccc(Cl)c3s2)cc1C` [bexin-1], the IC50 on Munc13-4 [2] is about 5 µM.
